Earlier results on two substances are cited in US20070154935A1, “HUMAN OBESITY SUSCEPTIBILITY GENE AND USES THEREOF” (INTEGRAGEN, priority 2002, published 2007).

The subject of one series is healthy controls. Particulars: intranasal application.
Series [1] has as its system massively obese child with leptin deficiency mutation. The settings on record: one child with leptin deficiency mutation.

As to “adrenocorticotropin4-10 (MEHFRWG; Corticotropin; UniProt P01189 141-147, looked up, fragment) [ACTH4-10]”, in the series on healthy controls, the body fat mass result is listed as “reduced”, the plasma leptin concentrations entry is recorded as “reduced” and the weight entry is “reduced”.
For “recombinant leptin: recombinant leptin given to a child with a leptin deficiency mutation”, the “treatment outcome of morbid obesity” value in series [1] is “treated successfully”.
